{
  "source": "patent US11345761B2",
  "about": "“Esterified selenium polysaccharide and preparation method and use therefor” (AI-MAY ZHONG KE SELENIUM TECHNOLOGY (TIANJIN) CO., LTD, priority 2018, dated 2022)",
  "key": {"[1]": {"test_system": "glutathione peroxidase (GSH-Px)", "assay": "Serum GSH-Px activity after feeding chicks", "format": "in vivo", "details": "5 micrograms of selenium/day", "description": "(§1) Chicks, which were used as a model, were fed with the esterified selenium polysaccharide of the present invention continuously at a dose of 5 micrograms of selenium/day after birth. A polysaccharide without the esterified selenium was used as a control. On days 7, 14, 21, and 28 after feeding, the assay of the activity of glutathione peroxidase (GSH-Px) and superoxide dismutase (SOD) was performed (using commercially available kits EnzyChrom™ Glutahione Peroxidase Assay Kit and MIBio Mouse superoxide dismutase (SOD) kit for completion of the assay)."}, "[2]": {"assay": "Blood detection after feeding mice", "format": "in vivo", "set-up": "red blood cell: unit not given here", "text": "Mice, which were used as a model, were fed with the esterified selenium polysaccharide prepared by the present invention continuously at a selenium dose of 2 to 5 micrograms of selenium/day for 2 weeks. A polysaccharide without the esterified selenium was used as a control. […] The above-mentioned detection data became stable starting from week 5."}, "[3]": {"test_system": "IFN-γ", "assay": "IFN-γ expression in B-6 splenocytes, flow cytometry", "format": "cell-based", "details": "2 to 5 micrograms selenium/mL, 48 hours, compared with 1,3-glucose hexasaccharide", "description": "(§2) B-6 splenocytes were used as the experimental model. Carrageenan, chitohexaose, 1,3-glucose hexasaccharide, PMA+innomycin were used as controls and incubated in the culture medium containing the esterified selenium polysaccharide of the present invention (2 to 5 micrograms selenium/mL) for 48 hours to detect the expression of IL-4 and IFN-γ thereof.\n(§3) In the Example, the culture medium for culturing B-6 spleen cells is the culture medium for culturing B-6 spleen cells conventionally in the art, and contains essential and non-essential amino acids, vitamins, glucose, hormones, growth factors, trace minerals and low-concentration fetal bovine serum (2%) and 5 mi penicillin/streptomycin solution. The buffer system of the medium is phosphate buffered saline solution PBS, and the pH value is 7.4 after equilibrating in a cell incubator containing 5% CO2.\n(§4) After the cells were harvested, they were stained with BD Bioscience's Cytofix/Cytoperm kit and detected by flow cytometry."}, "[4]": {"test_system": "IL-4", "assay": "IL-4 expression in B-6 splenocytes, flow cytometry", "format": "cell-based", "details": "2 to 5 micrograms selenium/mL, 48 hours, compared with 1,3-glucose hexasaccharide", "description": "as §2, §3, §4"}, "[5]": {"test_system": "superoxide dismutase (SOD)", "assay": "Serum SOD activity after feeding chicks", "format": "in vivo", "details": "5 micrograms of selenium/day", "description": "as §1"}, "[6]": {"details": "fed 2 to 5 micrograms of selenium/day, week 3 to week 6"}},
  "data": [
    {"substance": "esterified selenium polysaccharide", "values": [
      {"measurement": "Serum GSH-Px", "setting": "[1]; Day 1", "value": 1869, "unit": "U/mg"},
      {"measurement": "Serum GSH-Px", "setting": "[1]; Day 7", "value": 1879, "unit": "U/mg"},
      {"measurement": "Serum GSH-Px", "setting": "[1]; Day 14", "value": 1975, "unit": "U/mg"},
      {"measurement": "Serum GSH-Px", "setting": "[1]; Day 21", "value": 2150, "unit": "U/mg"},
      {"measurement": "Serum GSH-Px", "setting": "[1]; Day 28", "value": 2090, "unit": "U/mg"},
      {"measurement": "increase of chick GHS-Px activity at maximum", "setting": "[1]; maximum on days 14-21", "value": 15, "unit": "%"},
      {"measurement": "Selenium content in serum", "setting": "[2]; Week 1, 2 μg/day selenium", "value": 0.4, "unit": "µg/L"},
      {"measurement": "red blood cell", "setting": "[2]; Week 1, 2 μg/day selenium", "value": "9.58 ×10^6"},
      {"measurement": "white blood cell", "setting": "[2]; Week 1, 2 μg/day selenium", "value": 7260, "unit": "mL⁻¹"},
      {"measurement": "Selenium content in serum", "setting": "[2]; Week 1, 5 μg/day selenium", "value": 0.7, "unit": "µg/L"},
      {"measurement": "red blood cell", "setting": "[2]; Week 1, 5 μg/day selenium", "value": "9.66 ×10^6"},
      {"measurement": "white blood cell", "setting": "[2]; Week 1, 5 μg/day selenium", "value": 7290, "unit": "mL⁻¹"},
      {"measurement": "Selenium content in serum", "setting": "[2]; Week 3, 2 μg/day selenium", "value": 2.9, "unit": "µg/L"},
      {"measurement": "red blood cell", "setting": "[2]; Week 3, 2 μg/day selenium", "value": "9.75 ×10^6"},
      {"measurement": "white blood cell", "setting": "[2]; Week 3, 2 μg/day selenium", "value": 7360, "unit": "mL⁻¹"},
      {"measurement": "Selenium content in serum", "setting": "[2]; Week 3, 5 μg/day selenium", "value": 4.5, "unit": "µg/L"},
      {"measurement": "red blood cell", "setting": "[2]; Week 3, 5 μg/day selenium", "value": "9.97 ×10^6"},
      {"measurement": "white blood cell", "setting": "[2]; Week 3, 5 μg/day selenium", "value": 7570, "unit": "mL⁻¹"},
      {"measurement": "Selenium content in serum", "setting": "[2]; Week 4, 2 μg/day selenium", "value": 6.1, "unit": "µg/L"},
      {"measurement": "red blood cell", "setting": "[2]; Week 4, 2 μg/day selenium", "value": "10.5 ×10^6"},
      {"measurement": "white blood cell", "setting": "[2]; Week 4, 2 μg/day selenium", "value": 7590, "unit": "mL⁻¹"},
      {"measurement": "Selenium content in serum", "setting": "[2]; Week 4, 5 μg/day selenium", "value": 6.8, "unit": "µg/L"},
      {"measurement": "red blood cell", "setting": "[2]; Week 4, 5 μg/day selenium", "value": "10.5 ×10^6"},
      {"measurement": "white blood cell", "setting": "[2]; Week 4, 5 μg/day selenium", "value": 7910, "unit": "mL⁻¹"},
      {"measurement": "Selenium content in serum", "setting": "[2]; Week 5, 2 μg/day selenium", "value": 6.9, "unit": "µg/L"},
      {"measurement": "red blood cell", "setting": "[2]; Week 5, 2 μg/day selenium", "value": "11.1 ×10^6"},
      {"measurement": "white blood cell", "setting": "[2]; Week 5, 2 μg/day selenium", "value": 7960, "unit": "mL⁻¹"},
      {"measurement": "Selenium content in serum", "setting": "[2]; Week 5, 5 μg/day selenium", "value": 7.3, "unit": "µg/L"},
      {"measurement": "red blood cell", "setting": "[2]; Week 5, 5 μg/day selenium", "value": "11.4 ×10^6"},
      {"measurement": "white blood cell", "setting": "[2]; Week 5, 5 μg/day selenium", "value": 7990, "unit": "mL⁻¹"},
      {"measurement": "Selenium content in serum", "setting": "[2]; Week 6, 2 μg/day selenium", "value": 7.0, "unit": "µg/L"},
      {"measurement": "red blood cell", "setting": "[2]; Week 6, 2 μg/day selenium", "value": "11.2 ×10^6"},
      {"measurement": "white blood cell", "setting": "[2]; Week 6, 2 μg/day selenium", "value": 7960, "unit": "mL⁻¹"},
      {"measurement": "Selenium content in serum", "setting": "[2]; Week 6, 5 μg/day selenium", "value": 7.3, "unit": "µg/L"},
      {"measurement": "red blood cell", "setting": "[2]; Week 6, 5 μg/day selenium", "value": "11.5 ×10^6"},
      {"measurement": "white blood cell", "setting": "[2]; Week 6, 5 μg/day selenium", "value": 7990, "unit": "mL⁻¹"},
      {"measurement": "increase of red blood cells", "setting": "[2]; [6]", "value": 20, "unit": "%"},
      {"measurement": "increase of selenium content in serum", "setting": "[2]; [6]", "value": "more than 30%"},
      {"measurement": "increase of white blood cells", "setting": "[2]; [6]", "value": 10, "unit": "%"},
      {"measurement": "increase of maximum expression of IFN-γ", "setting": "[3]", "value": 36, "unit": "%"},
      {"measurement": "increase of maximum expression of IL-4", "setting": "[4]", "value": 60, "unit": "%"},
      {"measurement": "Serum SOD", "setting": "[5]; Day 1", "value": 180, "unit": "U/mg"},
      {"measurement": "Serum SOD", "setting": "[5]; Day 7", "value": 191, "unit": "U/mg"},
      {"measurement": "Serum SOD", "setting": "[5]; Day 14", "value": 195, "unit": "U/mg"},
      {"measurement": "Serum SOD", "setting": "[5]; Day 21", "value": 190, "unit": "U/mg"},
      {"measurement": "Serum SOD", "setting": "[5]; Day 28", "value": 187, "unit": "U/mg"},
      {"measurement": "increase of SOD at maximum", "setting": "[5]; maximum on days 7-14", "value": 12, "unit": "%"}
    ]}
  ]
}
